Literature values in US20210319872A1, “DRUG AND DEVICE COMBINATION PRODUCTS WITH IMPROVED SAFETY AND EFFICACY PROFILES” (priority 2016, published 2021).
Read-outs that look alike come from different tables or passages of the source.

[1] = chronic hepatitis C-associated thrombocytopenia
[2] = chronic idiopathic thrombocytopenic purpura

SMILES: CC(CCc1ccccc1)NCC(O)c1ccc(O)c(C(N)=O)c1.Cl (centres unmarked)
- Dizziness (in vivo): Neurologic: Dizziness (9% to 20%)
- Fatigue (in vivo): Other: Fatigue (11%)
- Has tingling sensation (in vivo): Dermatologic: Has tingling sensation (7%.)
- Nasal congestion (in vivo): Respiratory: Nasal congestion (3%)
- Nausea (in vivo): Gastrointestinal: Nausea (14%)
- Orthostatic hypotension (in vivo, iv): Cardiovascular: Orthostatic hypotension (1%, oral; 58%, IV)
- Orthostatic hypotension (in vivo, po): Cardiovascular: Orthostatic hypotension (1%, oral; 58%, IV)

SMILES: C[C@H](O)[C@H](O)[C@H]1CNc2[nH]c(N)nc(=O)c2N1.Cl.Cl [Kuvan]
- Cough (in vivo): Respiratory: Cough (4% or more), Nasal congestion (4% or more),
- Diarrhea (in vivo): Gastrointestinal: Diarrhea (4% or more), Vomiting (4% or more)
- Headache (in vivo): Neurologic: Headache (4% or greater)
- Nasal congestion (in vivo): Respiratory: Cough (4% or more), Nasal congestion (4% or more),
- Nasal discharge (in vivo): Nasal discharge (4% or more), Pain in throat (4% or more), Upper
- Pain in throat (in vivo): Nasal discharge (4% or more), Pain in throat (4% or more), Upper
- Serious side effect, Cardiovascular (in vivo): Cardiovascular: Myocardial infarction
- Serious side effect, Gastrointestinal (in vivo): Gastrointestinal: Gastrointestinal hemorrhage
- Serious side effect, Hematologic (in vivo): Hematologic: Hemorrhage, Post-procedural
- Serious side effect, Neurologic (in vivo): Neurologic: Seizure
- Serious side effect, Respiratory (in vivo): Respiratory: Respiratory failure
- Upper respiratory infection (in vivo): respiratory infection (17%)
- Vomiting (in vivo): Gastrointestinal: Diarrhea (4% or more), Vomiting (4% or more)

SMILES: COC(=O)[C@H](c1ccccc1Cl)N1CCc2sccc2C1 [Clopidogrel (Plavix ®)]
- Agranulocytosis (in vivo): Hematologic: Agranulocytosis (Less than 1%), Aplastic anemia
- Aplastic anemia (in vivo): (less then 1%), Bleeding, Major (0.8% to 3.7%), Pancytopenia
- Bleeding, Major (in vivo): (less then 1%), Bleeding, Major (0.8% to 3.7%), Pancytopenia
- Bleeding, Non-major (in vivo): Hematologic: Bleeding, Non-major (3.6% to 5.1%)
- Gastrointestinal hemorrhage (in vivo): Gastrointestinal: Colitis, Gastrointestinal hemorrhage (2%; 2.7%
- Intraocular hemorrhage (in vivo): Ophthalmic: Intraocular hemorrhage (0.05%)

SMILES: NC(=O)N1c2ccccc2C=Cc2ccccc21 [Equetro]
- Asthenia (in vivo): 8%
- Ataxia (in vivo): 15%
- Blurred vision (in vivo): 6%
- Constipation (in vivo): 10%
- Dizziness (in vivo): 44%
- Nausea (in vivo): 29%
- Pruritus (in vivo): 8%
- Rash (in vivo): 7%
- Vomiting (in vivo): 18%
- Xerostomia (in vivo): 8%
- Common side effect, Cardiovascular (listed without frequency): Cardiovascular: Hypotension
- Common side effect, Neurologic (listed without frequency): Somnolence
- Common side effect, Ophthalmic (listed without frequency): Nystagmus
- Serious side effect, Dermatologic (listed without frequency): Stevens-Johnson syndrome
- Serious side effect, Gastrointestinal (listed without frequency): Gastrointestinal: Pancreatitis
- Serious side effect, Immunologic (listed without frequency): Immunologic: Drug hypersensitivity syndrome
- Serious side effect, Neurologic (listed without frequency): Neurologic: Acute intermittent porphyria
- Serious side effect, Other (listed without frequency): Other: Angioedema
- Serious side effect, Respiratory (listed without frequency): Respiratory: Pulmonary hypersensitivity

SMILES: CCC(=O)C(CC(C)N(C)C)(c1ccccc1)c1ccccc1 (centres unmarked) [Methadone]
- Common side effect, Cardiovascular (in vivo): Cardiovascular: Hypotension
- Common side effect, Endocrine metabolic (in vivo): Endocrine metabolic: Diaphoresis
- Common side effect, Gastrointestinal (in vivo): Gastrointestinal: Constipation, Nausea, Vomiting
- Common side effect, Neurologic (in vivo): Neurologic: Asthenia, Dizziness, Lightheadedness, Sedated
- Serious side effect, Endocrine metabolic (in vivo): Endocrine metabolic: Hypoglycemia
- Serious side effect, Other (in vivo): Other: Drug dependence
- Serious side effect, Respiratory (in vivo): Respiratory: Respiratory acidosis, Respiratory arrest, Respiratory

SMILES: CCC(=O)O[C@@H](O[P@](=O)(CCCCc1ccccc1)CC(=O)N1C[C@H](C2CCCCC2)C[C@H]1C(=O)O)C(C)C [Fosinopril (Monopril)]
- Cough (in vivo): Respiratory: Cough (2.2% to 9.7%)
- Dizziness (in vivo): Neurologic: Dizziness (1.6% to 11.9%)
- Hyperkalemia (in vivo): Endocrine metabolic: Hyperkalemia (2.6%)
- Hypotension (in vivo): Cardiovascular: Hypotension (2.4% to 4.4%)
- Nausea and vomiting (in vivo): Gastrointestinal: Nausea and vomiting (1.2% to 2.2%)

SMILES: COc1cccc(C2(O)CCCCC2CN(C)C)c1 (centres unmarked) [Tramadol (Ultram)]
- Anaphylactoid reaction (in vivo): Immunologic: Anaphylactoid reaction (less than 1%)
- Constipation (in vivo): Gastrointestinal: Constipation (10% to 46%), Nausea (13% to
- Dizziness (in vivo): Neurologic: Dizziness (7% to 33%), Headache (3% to 32%),
- Dyspnea (in vivo): Respiratory: Dyspnea (less than 5%), Respiratory depression
- Flushing (in vivo): Dermatologic: Flushing (7.7% to 15.8%), Pruritus (3% to 11.9%)
- Headache (in vivo): Neurologic: Dizziness (7% to 33%), Headache (3% to 32%),
- Insomnia (in vivo): Insomnia (1% to 10.9%), Somnolence (4% to 25%)
- Myocardial infarction (in vivo): Cardiovascular: Myocardial infarction (0.5% to less than 1%)
- Pancreatitis (in vivo): Gastrointestinal: Pancreatitis (0.5% to less than 1%)
- Pruritus (in vivo): Dermatologic: Flushing (7.7% to 15.8%), Pruritus (3% to 11.9%)
- Serotonin syndrome (in vivo): Other: Serotonin syndrome (less than 1%)
- Somnolence (in vivo): Insomnia (1% to 10.9%), Somnolence (4% to 25%)
- Vomiting (in vivo): 40%), Vomiting (3% to 17%), Xerostomia (1% to 10%)
- Xerostomia (in vivo): 40%), Vomiting (3% to 17%), Xerostomia (1% to 10%)

SMILES: CN(C)CCC[C@@]1(c2ccc(F)cc2)OCc2cc(C#N)ccc21 [Escitalopram (Lexapro)]
- Abdominal pain (in vivo): Gastrointestinal: Abdominal pain (2%), Constipation (3% to 6%),
- Constipation (in vivo): Gastrointestinal: Abdominal pain (2%), Constipation (3% to 6%),
- Diaphoresis (in vivo): Dermatologic: Diaphoresis (3% to 8%)
- Diarrhea (in vivo): Diarrhea (6% to 14%), Indigestion (2% to 6%), Nausea (15% to
- Disorder of ejaculation (in vivo): Reproductive: Disorder of ejaculation (9% to 14%), Erectile
- Dizziness (in vivo): Neurologic: Dizziness (4% to 7%), Headache (24%), Insomnia (7%
- Erectile dysfunction (in vivo): dysfunction (3%), Orgasm incapacity (females, 2% to 6%),
- Fatigue (in vivo): Other: Fatigue (5% to 8%)
- Headache (in vivo): Neurologic: Dizziness (4% to 7%), Headache (24%), Insomnia (7%
- Indigestion (in vivo): Diarrhea (6% to 14%), Indigestion (2% to 6%), Nausea (15% to
- Insomnia (in vivo): Neurologic: Dizziness (4% to 7%), Headache (24%), Insomnia (7%
- Orgasm incapacity (in vivo): dysfunction (3%), Orgasm incapacity (females, 2% to 6%),
- Reduced libido (in vivo): Reduced libido (3% to 7%)
- Somnolence (in vivo): to 14%), Somnolence (4% to 13%)
- Vomiting (in vivo): ≤ 18%), Vomiting (up to 3%), Xerostomia (4% to 9%)
- Xerostomia (in vivo): 18%), Vomiting (up to 3%), Xerostomia (4% to 9%)

SMILES: Nc1cc(N2CCCCC2)nc(N)[n+]1[O-] [Minoxidil]
- Body fluid retention (incidence) (in vivo): Endocrine metabolic: Body fluid retention (7%), Hypernatremia
- Electrocardiogram abnormal (incidence) (in vivo): abnormal (60%), Pericardial effusion (3%), Pericarditis,
- Pericardial effusion (incidence) (in vivo): abnormal (60%), Pericardial effusion (3%), Pericarditis,

SMILES: CC1=NN(c2ccc(C)c(C)c2)C(=O)/C1=N\Nc1cccc(-c2cccc(C(=O)O)c2)c1O [Promacta]
- AST/SGOT level raised (Adult): 4%
- Headache (Chronic hepatitis C-associated thrombocytopenia and aplastic anemia): thrombocytopenia and aplastic anemia, 21%; chronic idiopathic
- Cough (aplastic anemia): Respiratory: Cough (Aplastic anemia, 23%; chronic ITP, pediatric,
- Diarrhea (aplastic anemia): 21%
- Fever (aplastic anemia): 14%
- Nausea (aplastic anemia): 33%), Pain in throat (Chronic idiopathic thrombocytopenic
- Pain in throat (aplastic anemia): 14%
- ALT/SGPT level raised (chronic ITP, pediatric): 6%
- Cough (chronic ITP, pediatric): 9%
- Anemia [1]: thrombocytopenia, 40%)
- Diarrhea [1]: thrombocytopenia, 19%; chronic idiopathic thrombocytopenic
- Fever [1]: 30%
- Liver failure [1]: associated thrombocytopenia, 7%), Liver function tests abnormal
- Nausea [1]: (Chronic hepatitis C-associated thrombocytopenia, 19%; chronic
- Portal vein thrombosis [1]: C-associated thrombocytopenia, 1%), Thrombosis (chronic
- Thrombosis [1]: hepatitis C-associated thrombocytopenia, 3%)
- Fatigue [2]: purpura, 4%), Fever (Chronic hepatitis C-associated
- Headache [2]: thrombocytopenic purpura, 10%)
- Pain in throat [2]: 4%
- Diarrhea (chronic idiopathic thrombocytopenic purpura, adults): 9%
- Diarrhea (chronic idiopathic thrombocytopenic purpura, pediatric): 5%
- Epistaxis (in vivo): 13%
- Liver function tests abnormal (in vivo): (11%)
- Pharyngitis (in vivo): 4%
- Urinary tract infectious disease (in vivo): Renal: Urinary tract infectious disease (5%)
- Vomiting (in vivo): Vomiting (6%)
- Serious side effect, Hematologic (listed without frequency): Hematologic: Bleeding, Portal vein thrombosis (chronic hepatitis
- Serious side effect, Hepatic (listed without frequency): Hepatic: Hepatotoxicity, Liver failure (chronic hepatitis C-
- Serious side effect, Renal (listed without frequency): Renal: Acute renal failure
- AST/SGOT level raised (pediatric): 5%

SMILES: CN1C(=O)CN=C(c2ccccc2)c2cc(Cl)ccc21 [Valium (diazepam)]
- Common side effect, Cardiovascular (in vivo): Cardiovascular: Hypotension
- Common side effect, Musculoskeletal (in vivo): Musculoskeletal: Muscle weakness
- Common side effect, Neurologic (in vivo): Neurologic: Ataxia, Incoordination (3%, rectal gel), Somnolence
- Common side effect, Other (in vivo): Other: Fatigue
- Common side effect, Respiratory (in vivo): Respiratory: Respiratory depression
- Diarrhea (in vivo): Gastrointestinal: Diarrhea (4%, rectal gel)
- Euphoria (in vivo): Psychiatric: Euphoria (3%, rectal gel)
- Incoordination (in vivo): Neurologic: Ataxia, Incoordination (3%, rectal gel), Somnolence
- Rash (in vivo): Dermatologic: Rash (3%, rectal gel)
- Serious side effect, Hematologic (in vivo): Hematologic: Neutropenia

SMILES: OCCN(CCO)c1nc(N2CCCCC2)c2nc(N(CCO)CCO)nc(N3CCCCC3)c2n1 [Dipyridamole]
- Bronchospasm (IV): Respiratory: Bronchospasm (IV, 0.2%)
- Chest pain (IV): Cardiovascular: Chest pain (IV, up to 30%), Electrocardiogram
- Dizziness (IV): 11.8%
- Flushing (IV): 3.4%
- Myocardial infarction (IV): 0.1%
- Ventricular tachycardia (IV): tachycardia (IV, 0.2%)
- Abdominal discomfort (oral): Gastrointestinal: Abdominal discomfort (oral, 6.1%)
- Dizziness (oral): 13.6%
- Headache (oral): 2.3%
- Rash (oral): 2.3%
